# Patent publication US9637469B2, “Pyridine derivative” (Teijin Pharma Limited, priority 2012, dated 2017)
# Target: T1, human URAT1 (Homo sapiens, UniProt Q96S37)
# T1 construct: Full-length cDNA of human URAT1 (hURAT1)
# T1 sequence (Q96S37 1-553): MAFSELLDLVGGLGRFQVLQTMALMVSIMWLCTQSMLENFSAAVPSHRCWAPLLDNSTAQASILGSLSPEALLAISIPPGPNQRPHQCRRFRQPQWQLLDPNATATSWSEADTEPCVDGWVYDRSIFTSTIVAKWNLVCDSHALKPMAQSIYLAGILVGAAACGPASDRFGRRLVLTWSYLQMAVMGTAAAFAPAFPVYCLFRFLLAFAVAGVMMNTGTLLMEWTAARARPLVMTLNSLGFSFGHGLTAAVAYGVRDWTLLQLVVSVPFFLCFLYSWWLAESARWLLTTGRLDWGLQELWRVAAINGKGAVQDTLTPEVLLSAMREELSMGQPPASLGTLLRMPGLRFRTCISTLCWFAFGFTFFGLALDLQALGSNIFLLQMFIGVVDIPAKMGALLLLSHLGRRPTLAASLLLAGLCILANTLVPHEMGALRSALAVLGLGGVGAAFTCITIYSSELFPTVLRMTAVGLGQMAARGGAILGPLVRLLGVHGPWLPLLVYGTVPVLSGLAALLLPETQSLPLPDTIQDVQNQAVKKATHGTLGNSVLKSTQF
# Assay: Test for inhibition of uric acid transport using human URAT1-expressing cells;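 note: three stars up to 0.2 µM two stars 0.2-2 µM one star 2-20 µM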
# Type: cell-based
# Conditions: HEK 293 cells expressing human URAT1, 14C-labeled uric acid 25 μM, uptake 37° C. for 5 min; for IC50: read-out: Inhibitory Activity (IC50 of uric acid transport inhibition)
# How it was run: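 HEK293 cells stably transfected with full-length hURAT1, preincubated 10 min at 37 °C in HBSS with NaCl replaced by Na gluconate. Uptake of 25 μM ¹⁴C-uric acid with compound ran 5 min at 37 °C, then scintillation counting. IC50 derived from % of DMSO-control URAT1-specific uptake.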
SMILES,Inhibitory Activity (IC50 of uric acid transport inhibition),IC50
"Cc1ccc(Oc2nc(-c3cccnc3)n(Cc3cc(Cl)ccc3Cl)c2C(=O)O)cc1 [Compound A99, 1-(2,5-dichlorobenzyl)-2-(pyridin-3-yl)-4-(p-tolyloxy)-1H-imidazole-5-carboxylic acid]",* * *,
"C=Cc1nc(-c2cccnc2)n(Cc2cc(Cl)ccc2Cl)c1C(=O)O [Compound A102, 1-(2,5-dichlorobenzyl)-2-(pyridin-3-yl)-4-vinyl-1H-imidazole-5-carboxylic acid]",* *,
"CSc1nc(-c2cccnc2)n(Cc2cc(Cl)ccc2Cl)c1C(=O)O [Compound A104, 1-(2,5-dichlorobenzyl)-4-(methylthio)-2-(pyridin-3-yl)-1H-imidazole-5-carboxylic acid]",* * *,
"CCSc1nc(-c2cccnc2)n(Cc2cc(Cl)ccc2Cl)c1C(=O)O [Compound A105, 1-(2,5-dichlorobenzyl)-4-(ethylthio)-2-(pyridin-3-yl)-1H-imidazole-5-carboxylic acid]",* * *,
C[S+]([O-])c1nc(-c2cccnc2)n(Cc2cc(Cl)ccc2Cl)c1C(=O)O (centres unmarked) [Compound A106],,2 to 20 µM
"CCC(O)(CC)c1nc(-c2cccnc2)n(Cc2cc(Cl)ccc2Cl)c1C(=O)O [Compound A109, 1-(2,5-dichlorobenzyl)-4-(3-hydroxypentan-3-yl)-2-(pyridin-3-yl)-1H-imidazole-5-carboxylic acid]",* *,
Cc1nc(-c2cccnc2)n(Cc2cccc3ccsc23)c1C(=O)NS(C)(=O)=O [Compound A115],,2 to 20 µM
"CS(=O)(=O)NC(=O)c1c(C2CC2)nc(-c2cccnc2)n1Cc1cccc2ccsc12 [Compound A117, 1-(benzo[b]thiophen-7-ylmethyl)-4-cyclopropyl-N-(methylsulfonyl)-2-(pyridin-3-yl)-1H-imidazole-5-carboxamide]",* *,
"O=C(NS(=O)(=O)C1CC1)c1c(C2CC2)nc(-c2cccnc2)n1Cc1cccc2ccsc12 [Compound A118, 1-(benzo[b]thiophen-7-ylmethyl)-4-cyclopropyl-N-(cyclopropylsulfonyl)-2-(pyridin-3-yl)-1H-imidazole-5-carboxamide]",* *,
COc1cncc(-c2nc(C)c(C(=O)O)n2Cc2cccc3ccccc23)c1 [Compound A120],,2 to 20 µM
Cc1cncc(-c2nc(C)c(C(=O)O)n2Cc2cccc3ccccc23)c1 [Compound A124],,2 to 20 µM
"Cc1nc(-c2cncc(Oc3ccccc3)c2)n(Cc2cccc3ccccc23)c1C(=O)O [Compound A130, 4-methyl-1-(naphthalen-1-ylmethyl)-2-(5-phenoxypyridin-3-yl)-1H-imidazole-5-carboxylic acid]",* *,
COc1ccccc1Oc1cncc(-c2nc(C)c(C(=O)O)n2Cc2cccc3ccccc23)c1 [Compound A131],,2 to 20 µM
"Cc1nc(-c2cncc(Cl)c2)n(Cc2csc3ccccc23)c1C(=O)O [Compound A132, 1-(benzo[b]thiophen-3-ylmethyl)-2-(5-chloropyridin-3-yl)-4-methyl-1H-imidazole-5-carboxylic acid]",* *,
"O=C(O)c1c(C(F)(F)F)nc(-c2cncc(F)c2)n1Cc1cc(Cl)ccc1Cl [Compound A136, 1-(2,5-dichlorobenzyl)-2-(5-fluoropyridin-3-yl)-4-(trifluoromethyl)-1H-imidazole-5-carboxylic acid]",* * *,
"O=C(O)c1c(C(F)(F)F)nc(-c2cncc(C(F)(F)F)c2)n1Cc1cc(Cl)ccc1Cl [Compound A140, 1-(2,5-dichlorobenzyl)-4-(trifluoromethyl)-2-(5-(trifluoromethyl)pyridin-3-yl)-1H-imidazole-5-carboxylic acid]",* * *,
"Cc1nc(-c2cncc(F)c2)n(Cc2csc3cccc(Cl)c23)c1C(=O)O [Compound A141, 1-((4-chlorobenzo[b]thiophen-3-yl)methyl)-2-(5-fluoropyridin-3-yl)-4-methyl-1H-imidazole-5-carboxylic acid]",* *,
"Cc1nc(-c2cncc(C(F)(F)F)c2)n(Cc2csc3cccc(Cl)c23)c1C(=O)O [Compound A143, 1-((4-chlorobenzo[b]thiophen-3-yl)methyl)-4-methyl-2-(5-(trifluoromethyl)pyridin-3-yl)-1H-imidazole-5-carboxylic acid]",* * *,
"O=C(O)c1c(C2CC2)nc(-c2cncc(Cl)c2)n1Cc1cccc2ccccc12 [Compound A145, 2-(5-chloropyridin-3-yl)-4-cyclopropyl-1-(naphthalen-1-ylmethyl)-1H-imidazole-5-carboxylic acid]",* * *,

# Next, values leading:
Inhibitory Activity (IC50 of uric acid transport inhibition),IC50,SMILES
* * *,,"O=C(O)c1c(Oc2ccc(F)cc2)nc(-c2cccnc2)n1Cc1cc(Cl)ccc1Cl [Compound A100, 1-(2,5-dichlorobenzyl)-4-(4-fluorophenoxy)-2-(pyridin-3-yl)-1H-imidazole-5-carboxylic acid]"
* * *,,"N#Cc1nc(-c2cccnc2)n(Cc2cc(Cl)ccc2Cl)c1C(=O)O [Compound A101, 4-cyano-1-(2,5-dichlorobenzyl)-2-(pyridin-3-yl)-1H-imidazole-5-carboxylic acid]"
* *,,"O=C(O)c1c(C2=CCCC2)nc(-c2cccnc2)n1Cc1cc(Cl)ccc1Cl [Compound A103, 4-(1-cyclopenten-1-yl)-1-(2,5-dichlorobenzyl)-2-(pyridin-3-yl)-1H-imidazole-5-carboxylic acid]"
,2 to 20 µM,CC[S+]([O-])c1nc(-c2cccnc2)n(Cc2cc(Cl)ccc2Cl)c1C(=O)O (centres unmarked) [Compound A107]
* * *,,"CC(C)(O)c1nc(-c2cccnc2)n(Cc2cc(Cl)ccc2Cl)c1C(=O)O [Compound A108, 1-(2,5-dichlorobenzyl)-4-(2-hydroxypropan-2-yl)-2-(pyridin-3-yl)-1H-imidazole-5-carboxylic acid]"
* *,,"Clc1ccc(Cl)c(Cn2c(-c3nnn[nH]3)cnc2-c2cccnc2)c1 [Compound A110, 3-(1-(2,5-dichlorobenzyl)-5-(1H-tetrazol-5-yl)-1H-imidazol-2-yl)pyridine]"
,2 to 20 µM,"Cc1nc(-c2cccnc2)n(Cc2cc(Cl)ccc2Cl)c1C(=O)NS(C)(=O)=O [Compound A111, 1-(2,5-dichlorobenzyl)-4-methyl-N-(methylsulfonyl)-2-(pyridin-3-yl)-1H-imidazole-5-carboxamide]"
,2 to 20 µM,Cc1nc(-c2cccnc2)n(Cc2cc(Cl)ccc2Cl)c1C(=O)NS(=O)(=O)C1CC1 [Compound A112]
,2 to 20 µM,Cc1nc(-c2cccnc2)n(Cc2cccc3ccsc23)c1C(=O)NS(=O)(=O)C1CC1 [Compound A116]
,2 to 20 µM,COc1ncccc1-c1nc(C)c(C(=O)O)n1Cc1cccc2ccccc12 [Compound A125]
* *,,"Cc1nc(-c2cncc(F)c2)n(Cc2csc3ccccc23)c1C(=O)O [Compound A133, 1-(benzo[b]thiophen-3-ylmethyl)-2-(5-fluoropyridin-3-yl)-4-methyl-1H-imidazole-5-carboxylic acid]"
* *,,"Cc1nc(-c2cncc(C(F)(F)F)c2)n(Cc2cccc3ccccc23)c1C(=O)O [Compound A138, 4-methyl-1-(naphthalen-1-ylmethyl)-2-(5-(trifluoromethyl)pyridin-3-yl)-1H-imidazole-5-carboxylic acid]"
* * *,,"Cc1nc(-c2cncc(Cl)c2)n(Cc2csc3cccc(Cl)c23)c1C(=O)O [Compound A142, 1-((4-chlorobenzo[b]thiophen-3-yl)methyl)-2-(5-chloropyridin-3-yl)-4-methyl-1H-imidazole-5-carboxylic acid]"
* * *,,"CC(C)c1nc(-c2cncc(Cl)c2)n(Cc2cccc3ccccc23)c1C(=O)O [Compound A144, 2-(5-chloropyridin-3-yl)-4-isopropyl-1-(naphthalen-1-ylmethyl)-1H-imidazole-5-carboxylic acid]"
* * *,,"CC(C)c1nc(-c2cncc(Cl)c2)n(Cc2cc(Cl)ccc2Cl)c1C(=O)O [Compound A146, 2-(5-chloropyridin-3-yl)-1-(2,5-dichlorobenzyl)-4-isopropyl-1H-imidazole-5-carboxylic acid]"
* *,,"CCc1nc(-c2cncc(F)c2)n(Cc2cccc3ccccc23)c1C(=O)O [Compound A148, 4-ethyl-2-(5-fluoropyridin-3-yl)-1-(naphthalen-1-ylmethyl)-1H-imidazole-5-carboxylic acid]"
